Experimental data reported in the supplement of paper PMC11208160.

assay: recombinant barcode read abundance after kanamycin selection (control-corrected) (log10(CPM+1)); higher = more efficient recombination; sequences stand for … in AGTGCAGAGAAAATCGGCCAGTTTTCTCTGCCTGCAGTCCGCATGCCGT…AGATTTATGCAGCGGACTGCCTTTCTCCCAAAGTGATAAACCGGACAGTATCATGGACCGGTTTTCCCGGTAATCCGTATTTGCAAGGTTGGTTTCACT; site = the 11-nt target
Outline: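 Recombination efficiency was calculated from barcode counts at recombinant junctions, normalized to counts per million, averaged and corrected by the control. Each value is given as log10(CPM+1). The constructs were Gibson-cloned oligos (promoter, target, barcode, J23119-driven first 104 bridge RNA bases) in a vector with the remaining 73 bp and a T7-inducible recombinase, co-electroporated into E. coli with a donor plasmid and plated in duplicate on chloramphenicol/ampicillin LB agar (control) or chloramphenicol/ampicillin/kanamycin with 0.1 mM IPTG.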
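Further: IS621 recombinase and bridge RNA in Escherichia coli cells.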

Sequence	recombinant barcode read abundance (log10)
AGTACAACTTGGGTTCTAACCTGTTGCCT (site AGAACAACTAG)	0.134
AGTACAACTTGGGTTCTAACCTGTTGCCT (site AGCACAACTAG)	0.153
AGTACAACTTGGGTTCTAACCTGTTGCCT (site AGGACAACTAG)	0.0508
AGTACAACTTGGGTTCTAACCTGTTGCCT (site AGTACAACTAG)	0.237
AGTAGGACTTGGGTTCTAACCTGTTGCAG (site AGCAGGGCTCT)	0.474
AGTAGGACTTGGGTTCTAACCTGTTGCAG (site AGTAGGACTCT)	2
AGTAGTGCTTGGGTTCTAACCTGTTGCCT (site AATAGTGCTAG)	0.186
AGTAGTGCTTGGGTTCTAACCTGTTGCCT (site ACTAGTGCTAG)	0.0779
AGTAGTGCTTGGGTTCTAACCTGTTGCCT (site AGTAGTGCTAG)	0.0473
AGTAGTGCTTGGGTTCTAACCTGTTGCCT (site ATTAGTGCTAG)	0.0347
AGTATATCTTGGGTTCTAACCTGTTGCCT (site AGTATATCTAG)	0.121
AGTATATCTTGGGTTCTAACCTGTTGCCT (site GGCATATCTAG)	0.171
AGTATCCCTTGGGTTCTAACCTGTTGCCG (site AGTATCCCTCG)	0.461
AGTATCCCTTGGGTTCTAACCTGTTGCCG (site GTCTCATCTAT)	0.2
AGTATGACTTGGGTTCTAACCTGTTGCCT (site AGTATGACTAG)	0.923
AGTATGACTTGGGTTCTAACCTGTTGCCT (site CGTATGACTAG)	0.304
AGTATGACTTGGGTTCTAACCTGTTGCCT (site GGTATGACTAG)	0.0345
AGTATGACTTGGGTTCTAACCTGTTGCCT (site TGTATGACTAG)	0.0581
AGTCATACTTGGGTTCTAACCTGTTGCTT (site AGTCATACTAA)	0.199
AGTCATACTTGGGTTCTAACCTGTTGCTT (site AGTCGGACTAA)	0.0739
AGTCGACCTTGGGTTCTAACCTGTTGCCT (site AGTCGACCTAG)	1.78
AGTCGACCTTGGGTTCTAACCTGTTGCCT (site CGTCGACCTAG)	0.328

Sequence	recombinant barcode read abundance (log10)
AGTCGACCTTGGGTTCTAACCTGTTGCCT (site GGTCGACCTAG)	0.112
AGTCGACCTTGGGTTCTAACCTGTTGCCT (site TGTCGACCTAG)	0.143
AGTCGTTCTTGGGTTCTAACCTGTTGCCT (site AGTCGTTCTAG)	0.23
AGTCGTTCTTGGGTTCTAACCTGTTGCCT (site GAGTTCACTCT)	0.141
AGTCTAGCTTGGGTTCTAACCTGTTGCCC (site AGTCTAGCTAG)	0.421
AGTCTAGCTTGGGTTCTAACCTGTTGCCC (site AGTCTAGCTCG)	1.16
AGTCTAGCTTGGGTTCTAACCTGTTGCCC (site AGTCTAGCTGG)	1.11
AGTCTAGCTTGGGTTCTAACCTGTTGCCC (site AGTCTAGCTTG)	0.149
AGTCTAGCTTGGGTTCTAACCTGTTGCTC (site AGTCTAGCTGA)	0.336
AGTCTAGCTTGGGTTCTAACCTGTTGCTC (site AGTCTAGCTTA)	0.62
AGTCTGCCTTGGGTTCTAACCTGTTGCTG (site AGTCTGCCTCA)	0.686
AGTCTGCCTTGGGTTCTAACCTGTTGCTG (site GCCGATACTTG)	0.0929
AGTCTGGCTTGGGTTCTAACCTGTTGCCT (site AGTCTGGCTAG)	0.146
AGTCTGGCTTGGGTTCTAACCTGTTGCCT (site TGTCTGGCTAG)	0.108
AGTGACTCTTGGGTTCTAACCTGTTGCCT (site AGTCTCTCTAG)	0.0765
AGTGACTCTTGGGTTCTAACCTGTTGCCT (site AGTGACTCTAG)	2.32
AGTTCCACTTGGGTTCTAACCTGTTGCCT (site AGTTACACTAG)	0.0694
AGTTCCACTTGGGTTCTAACCTGTTGCCT (site AGTTCCACTAG)	0.324
AGTTCCACTTGGGTTCTAACCTGTTGCCT (site AGTTGCACTAG)	0.0253
AGTTCCACTTGGGTTCTAACCTGTTGCCT (site AGTTTCACTAG)	0.102
AGTTCGTCTTGGGTTCTAACCTGTTGCCG (site AGCTCGTCTCC)	0.29
AGTTCGTCTTGGGTTCTAACCTGTTGCCG (site AGTTCGTCTCG)	0.314

Sequence	recombinant barcode read abundance (log10)
AGTTCTCCTTGGGTTCTAACCTGTTGCCG (site AGTTCTCCTCG)	0.0496
AGTTCTCCTTGGGTTCTAACCTGTTGCCG (site GAGCAGGCTAA)	0.0339
AGTTGTCCTTGGGTTCTAACCTGTTGCAT (site AGTTGTCCTAA)	0.0625
AGTTGTCCTTGGGTTCTAACCTGTTGCAT (site AGTTGTCCTAC)	0.0713
AGTTGTCCTTGGGTTCTAACCTGTTGCAT (site AGTTGTCCTAG)	0.0326
AGTTGTCCTTGGGTTCTAACCTGTTGCAT (site AGTTGTCCTAT)	0.219
AGTTGTCCTTGGGTTCTAACCTGTTGCTT (site AGTTGTCCTAA)	0.126
AGTTGTCCTTGGGTTCTAACCTGTTGCTT (site AGTTGTCCTAC)	0.0653
AGTTGTCCTTGGGTTCTAACCTGTTGCTT (site AGTTGTCCTAG)	0.0387
AGTTGTCCTTGGGTTCTAACCTGTTGCTT (site AGTTGTCCTAT)	0.0416
AGTTTCACTTGGGTTCTAACCTGTTGCCT (site AGTTACACTAG)	0.11
AGTTTCACTTGGGTTCTAACCTGTTGCCT (site AGTTCCACTAG)	0.0621
AGTTTCACTTGGGTTCTAACCTGTTGCCT (site AGTTGCACTAG)	0.0233
AGTTTCACTTGGGTTCTAACCTGTTGCCT (site AGTTTCACTAG)	0.0755
ATAAAGACTTGGGTTCTAACCTGTTGCCT (site ATAAAGACTAG)	1.96
ATAAAGACTTGGGTTCTAACCTGTTGCCT (site ATCAAGACTAG)	0.181
ATAAAGACTTGGGTTCTAACCTGTTGCCT (site ATGAAGACTAG)	0.212
ATAAAGACTTGGGTTCTAACCTGTTGCCT (site ATTAAGACTAG)	0.586
ATAAATGCTTGGGTTCTAACCTGTTGCCT (site ATAAATGCTAG)	1.34
ATAAATGCTTGGGTTCTAACCTGTTGCCT (site ATAAGGGCTAG)	0.0428
ATAACAGCTTGGGTTCTAACCTGTTGCCT (site ATAAAAGCTAG)	0.224
ATAACAGCTTGGGTTCTAACCTGTTGCCT (site ATAACAGCTAG)	1.43
